Series [1] can be described thus: Oral bioavailability in rat. Format: ADME, organism-based. The settings on record: in vivo.
The test system of a further series is Liver. Description: Intrinsic clearance in rat liver microsomes. It counts as ADME, microsome.
A short description of series [2]: Inhibition of CYP450 (unknown origin). It counts as ADME. As to conditions: human.
Series [3] can be described thus: Clearance in rat. It counts as ADME. As to conditions: in vivo.
In another series the test system is HepG2. Kind of series: Cytotoxicity against human HepG2 cells. Format: functional.
Series [4] in a line: Protein binding in rat plasma. It counts as ADME, cell-free. The settings on record: read-out: PPB (converted).
In another series the target is hERG (KCNH2) (Homo sapiens, UniProt Q12809). Description: Inhibition of human ERG at 10 uM relative to control.
hERG (KCNH2), sequence (Q12809 whole entry): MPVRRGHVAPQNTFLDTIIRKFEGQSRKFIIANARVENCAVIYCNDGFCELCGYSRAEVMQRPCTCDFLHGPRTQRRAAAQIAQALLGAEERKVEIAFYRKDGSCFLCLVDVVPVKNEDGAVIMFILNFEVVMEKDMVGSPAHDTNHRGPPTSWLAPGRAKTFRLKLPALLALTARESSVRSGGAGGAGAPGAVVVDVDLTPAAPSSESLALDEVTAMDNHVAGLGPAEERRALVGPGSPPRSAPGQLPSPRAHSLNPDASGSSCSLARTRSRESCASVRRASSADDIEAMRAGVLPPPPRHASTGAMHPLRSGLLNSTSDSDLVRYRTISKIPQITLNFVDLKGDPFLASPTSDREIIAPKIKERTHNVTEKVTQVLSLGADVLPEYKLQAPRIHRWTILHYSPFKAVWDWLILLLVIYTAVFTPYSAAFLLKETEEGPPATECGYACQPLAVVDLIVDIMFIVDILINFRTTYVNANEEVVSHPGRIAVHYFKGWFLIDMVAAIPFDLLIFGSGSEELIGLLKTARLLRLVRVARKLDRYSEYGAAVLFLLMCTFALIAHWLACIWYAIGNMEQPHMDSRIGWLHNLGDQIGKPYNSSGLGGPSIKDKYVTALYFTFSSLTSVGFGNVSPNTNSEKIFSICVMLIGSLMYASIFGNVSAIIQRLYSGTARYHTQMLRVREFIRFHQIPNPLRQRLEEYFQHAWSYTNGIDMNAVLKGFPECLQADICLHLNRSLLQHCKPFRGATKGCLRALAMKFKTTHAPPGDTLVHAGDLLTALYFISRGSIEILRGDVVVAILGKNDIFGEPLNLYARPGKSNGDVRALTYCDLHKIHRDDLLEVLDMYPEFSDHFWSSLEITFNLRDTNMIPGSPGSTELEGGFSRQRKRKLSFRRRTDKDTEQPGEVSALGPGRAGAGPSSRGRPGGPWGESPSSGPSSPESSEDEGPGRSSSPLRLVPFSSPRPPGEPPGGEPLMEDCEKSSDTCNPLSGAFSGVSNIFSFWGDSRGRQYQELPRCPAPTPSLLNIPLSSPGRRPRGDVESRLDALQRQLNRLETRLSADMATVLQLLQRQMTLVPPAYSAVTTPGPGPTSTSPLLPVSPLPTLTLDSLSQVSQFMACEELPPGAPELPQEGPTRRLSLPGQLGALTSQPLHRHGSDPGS
A short description of series [5]: Permeability of the compound by PAMPA. Format: physicochemical. The settings on record: read-out: permeability. (In general: In PAMPA a lipid-coated filter parts donor from acceptor wells.)
The nature of series [6]: Protein binding in human plasma. It counts as ADME, cell-free. The settings on record: read-out: PPB (converted).
A short description of series [7]: Extraction ratio in human hepatic microsomes. Format: ADME, Microsome. As to conditions: liver microsomes, read-out: ERH.
Series [8] in a line: Extraction ratio in rat hepatic microsomes. It counts as ADME, Microsome. As to conditions: liver microsomes, read-out: ERH. Background: Microsomes from liver hold many membrane-bound enzymes, among them those of drug oxidation.
The target of series [9] is T1, Tyrosine-protein kinase receptor UFO (Homo sapiens, UniProt P30530).
T1 sequence (P30530 whole entry): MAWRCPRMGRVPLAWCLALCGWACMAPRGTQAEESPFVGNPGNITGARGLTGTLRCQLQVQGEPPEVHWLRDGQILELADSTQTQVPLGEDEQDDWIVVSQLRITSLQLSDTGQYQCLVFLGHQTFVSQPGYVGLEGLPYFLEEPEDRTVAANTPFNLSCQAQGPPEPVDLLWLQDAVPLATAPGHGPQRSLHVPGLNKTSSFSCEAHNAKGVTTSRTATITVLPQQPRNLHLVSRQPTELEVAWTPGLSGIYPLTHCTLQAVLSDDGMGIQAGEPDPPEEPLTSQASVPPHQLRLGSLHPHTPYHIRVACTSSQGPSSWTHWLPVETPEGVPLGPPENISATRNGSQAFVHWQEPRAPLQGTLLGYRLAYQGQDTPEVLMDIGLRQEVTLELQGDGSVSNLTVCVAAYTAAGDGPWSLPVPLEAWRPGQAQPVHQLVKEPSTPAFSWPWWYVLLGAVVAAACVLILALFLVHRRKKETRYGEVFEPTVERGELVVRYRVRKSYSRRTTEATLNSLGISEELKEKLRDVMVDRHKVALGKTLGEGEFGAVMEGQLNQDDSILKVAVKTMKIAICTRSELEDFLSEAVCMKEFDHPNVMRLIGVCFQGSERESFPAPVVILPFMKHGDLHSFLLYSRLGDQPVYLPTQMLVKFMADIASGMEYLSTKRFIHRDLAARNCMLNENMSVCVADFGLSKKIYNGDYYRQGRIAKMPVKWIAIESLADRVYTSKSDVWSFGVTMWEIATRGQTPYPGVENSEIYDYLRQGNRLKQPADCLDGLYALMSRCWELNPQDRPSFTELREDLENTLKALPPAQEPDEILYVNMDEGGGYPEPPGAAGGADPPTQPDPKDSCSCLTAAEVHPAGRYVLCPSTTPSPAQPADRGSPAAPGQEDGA
Kind of series: Inhibition of Axl (unknown origin).

The record followed here is ChEMBL document CHEMBL4000232, “Structure-based optimization of 1H-imidazole-2-carboxamides as Axl kinase inhibitors utilizing a Mer mutant surrogate” (Bioorg Med Chem Lett, 2017).

For orientation: bioavailability means dose-corrected exposure relative to a reference, in per cent. Read a high bioavailability as good availability. A word on the clearance: it is the rate of elimination divided by the concentration. A low value points to inefficient removal. For orientation: inhibition means the change of the read-out against control, counted positive when it falls. Low readings indicate little suppression, high ones strong suppression. One may read the IC50 as the concentration needed to halve the response being measured.

Compound `CS(=O)(=O)N1CCO[C@H](c2csc(-c3cc(N4CCOCC4)ccc3NC(=O)c3ncc[nH]3)n2)C1` had a bioavailability in series [1] of 38%. In the series on Liver, this compound returned a CLH of 35 mL/min/kg. The “inhibition (INH)” value in [2] is given as more than 16%. Besides, the clearance in series [3] came to 54 mL/min/kg. Moreover, in the series on HepG2, the Activity came out at 14 µM. For the same compound, the fraction unbound is 0.1 in [4] and 0.21 in [6]. For the same compound, on hERG (KCNH2), the inhibition at 10 µM came out at 19%. For the same compound, the Papp in [5] was 18.4 ×10⁻⁶ cm/s.

The compound `CS(=O)(=O)N1CCC[C@H](c2csc(-c3ccccc3NC(=O)c3ncc[nH]3)n2)C1` returned a bioavailability in series [1] of 13%. In addition, the clearance in series [3] came to 20 mL/min/kg. Also, at hERG (KCNH2), 10 µM produced 94% inhibition. The Papp in series [5] worked out at 15.7 ×10⁻⁶ cm/s.

As for `CS(=O)(=O)N1CCC[C@H](c2csc(-c3ccccc3NC(=O)c3cnc[nH]3)n2)C1`, the hepatic extraction ratio amounted to 0.9 in series [7] and 0.71 in [8]. For the same compound, the IC50 in series [9] was more than 1 µM.

Consider `CS(=O)(=O)N1CCC[C@H](c2csc(-c3ccccc3NC(=O)c3nc4ccccc4[nH]3)n2)C1`, for which the results for the hepatic extraction ratio in series [7] and in [8] were 0.86 and 0.87, respectively. Besides, the IC50 in [9] was more than 1 µM.

Consider `CC(=O)N1CCC[C@H](c2csc(-c3ccccc3NC(=O)c3ncc[nH]3)n2)C1`, for which the hepatic extraction ratio is 0.78 in series [7] and 0.67 in series [8]. Moreover, the IC50 in series [9] was more than 1 µM.

Take `CCS(=O)(=O)N1CCC[C@H](c2csc(-c3ccccc3NC(=O)c3ncc[nH]3)n2)C1`: the hepatic extraction ratio worked out at 0.95 in series [7] and 0.86 in series [8]. This compound yielded an IC50 in series [9] of more than 0.63 µM.

In the case of `COC(=O)N1CCC[C@H](c2csc(-c3ccccc3NC(=O)c3ncc[nH]3)n2)C1`, the hepatic extraction ratio in series [7] worked out at 0.75; in series [8], 0.69. In addition, the IC50 in series [9] was more than 1 µM.
